# Source: patent US7858657B2 (Proix Pharmaceutical Corp., priority 2004, dated 2010)
# Where two headings read alike, the source gives them in different places. Marks after values point to notes of the source that are not given here.
# Tests used:
# OvCaR-3 ovarian = assay: Antitumor activity of cytotoxic drugs alone or combined with PX-866, OvCar-3 ovarian (Table 2); assay type: in vivo; conditions: for Alone Growth delay days / Alone TGI % / Alone log cell kill: size 110 mm^3
# HT-29 colon = assay: Antitumor activity of wortmannin analogs, HT-29 colon tumor (Table 1); assay type: in vivo; conditions: initial tumor vol 170 mm^3, 12 mg/kg/day ip Q1D × 9
# [1] = Glucose tolerance studies; conditions: mean ± SE of 4 mice
# Experimental: Glucose Tolerance Studies. Female C5781/6 mice were fasted overnight and administered a single dose of D(+) glucose (1 mg/kg) as a 0.1 g/ml solution po. […] Human recombinant insulin was administered at 0.075:g/kg ip (26) at the same time as glucose administration.
# Values are the mean±SE of 4 mice per group.
# A-549 cells = assay type: cell-based, human; conditions: PX-866 at concentrations up to 100 nM
# Experimental: Cells. […] All cell lines were tested to be mycoplasma free using a PCR ELISA kit (Roche Diagnostics Inc., Indianapolis, Ind.).
# HT-29 colon cancer = assay: Antitumor activity of PX-866 with gefitinib in HT-29 colon cancer; assay type: in vivo; conditions: PX-866 2 mg/kg orally 4 hours prior to gefitinib 75 mg/kg po (FIG. 13)
# [2] = Plasma insulin levels after PX-866; assay type: in vivo, C57B1/6 mice; conditions: PX-866 single dose of 10 mg/kg po (FIG. 10)
# From the text: PX-866 and glucose tolerance.
# [3] = Toxicity studies, blood counts in C57B1/6 mice; assay type: in vivo; conditions: PX-866 3 mg/kg po every other day for 15 doses
# Experimental: Toxicity Studies. […] The mice were killed 24 hr after the last dose and changes in body weight, blood lymphocyte, neutrophil, red blood cell, platelet counts, serum glucose, aspartate amino transferase (AST), and amino alanine transferase (ALT) were measured.
# A-549 lung = assay: Antitumor activity of cytotoxic drugs alone or combined with PX-866, A-549 lung (Table 2); assay type: in vivo
# [4] = tested on: tumor phospho-Akt (A-549 tumor xenografts); assay: Pharmacodynamic studies, tumor phospho-Akt in A-549 xenografts; assay type: in vivo, scid mice
# From the text: Pharmacodynamic Studies. […] Tumor Akt activity was expressed as the ratio of phospho-Ser473-Akt to total Akt.
# mouse bone marrow = assay: Bone marrow colony formation from treated mice; assay type: in vivo; conditions: C57B1/6 mice, PX-866 3 mg/kg po every other day for 15 doses
# Experimental: Bone Marrow Colony Formation. After sacrifice, mouse bone marrow was extracted from each femur and red blood cells lysed with 0.2% hypotonic NaCl followed by the addition of a 1.6% hypertonic NaCl. Approximately 20,000 cells were plated in 1 ml of Methocult™ GF M3434 (Stemcell Technologies Inc, Vancouver, BC, Canada) containing 1% methylcellulose in […], 15% fbs, 1% bovine serum albumin, 10:g/ml recombinant human insulin, 200:g/ml humantransferrin, […] β-mercaptoethanol, 2 mM L-glutamine, 50 ng/ml rm stem cell factor, 10 ng/ml recombinant mouse interleukin-3, 10 ng/ml recombinant human interleukin-6, and 3 units/ml recombinant erythropoietin. Cells were plated in triplicate and grown at 37/C and 5% CO2 in a humid environment for 14 days before scoring. Colonies (>40 cells/colony) or clusters (3-40 cells) were scored and growth of colony-forming unit granulocyte, erythroid, macrophage, megakaryocyte (CFU-GEMM; burst-forming units-erythroid (BFU-E), colony-forming units granulocyte macrophage (CFU-GM), assessed using standard criteria. Qualitative observations were made on background levels of single cells.
# [5] = Pharmacokinetics of PX-866 in mouse plasma; assay type: in vivo; conditions: intravenous, intraperitoneal and oral administration; mouse plasma (FIG. 2)
# [6] = Nonfasting glucose levels after long term PX-866; assay type: in vivo, mice; conditions: PX-866 9 mg/kg iv every other day for 15 doses; ±S.E., n=4
# p110α/p85α = biological target: T1, p110α/p85α (Bos taurus, UniProt P32871); assay: Inhibition of recombinant PtdIns-3-kinase, [32P]-ATP dependent phosphorylation of PtdIns; assay type: biochemical, bovine; conditions: recombinant enzyme; read-out: IC50, PtdIns-3-kinase p110α/p85α
# T1 construct: purchased Upstate (Charlottesville, Va.)
# From the text: Materials and Methods. Compounds. […] Rabbit purified anti-phosphoSer473-Akt antibody, anti-Akt antibody, antiphospho Tyr1086-EGF-receptor antibody and anti-EGFR antibody were obtained from Cell Signaling Technology (Beverly, Mass.). Human recombinant p110α/p85α, p110β/p85α, p120 (and p110*/p85α PtdIns-3-kinases were obtained from Upstate (Charlottesville, Va.). Metformin hydrochloride was obtained from Spectrum Chemical (Gardena, Calif.), pioglitazone hydrochloride and recombinant human insulin from Sigma Chemical (St. Louis).
# Measurement of PtdIns-3-kinase.
# [7] = tested on: tumor phospho-EGFR (A-549 tumor xenografts); assay type: in vivo, scid mice
# [8] = PX-866 iv 12 mg/kg Q2D × 5 combined with taxol ip 12 mg/kg Q2D × 5
# [9] = PX-866 po 4 mg/kg Q2D × 5 combined with taxol ip 12 mg/kg Q2D × 5
# [10] = PX-866 ip 6 mg/kg QD × 5 combined with cisplatin ip 1 mg/kg QD × 5
# [11] = size 300 mm^3, PX-866 ip 6 mg/kg QD × 5
# [12] = combination of gefitinib and PX-866
# T1 sequence (P32871 whole entry): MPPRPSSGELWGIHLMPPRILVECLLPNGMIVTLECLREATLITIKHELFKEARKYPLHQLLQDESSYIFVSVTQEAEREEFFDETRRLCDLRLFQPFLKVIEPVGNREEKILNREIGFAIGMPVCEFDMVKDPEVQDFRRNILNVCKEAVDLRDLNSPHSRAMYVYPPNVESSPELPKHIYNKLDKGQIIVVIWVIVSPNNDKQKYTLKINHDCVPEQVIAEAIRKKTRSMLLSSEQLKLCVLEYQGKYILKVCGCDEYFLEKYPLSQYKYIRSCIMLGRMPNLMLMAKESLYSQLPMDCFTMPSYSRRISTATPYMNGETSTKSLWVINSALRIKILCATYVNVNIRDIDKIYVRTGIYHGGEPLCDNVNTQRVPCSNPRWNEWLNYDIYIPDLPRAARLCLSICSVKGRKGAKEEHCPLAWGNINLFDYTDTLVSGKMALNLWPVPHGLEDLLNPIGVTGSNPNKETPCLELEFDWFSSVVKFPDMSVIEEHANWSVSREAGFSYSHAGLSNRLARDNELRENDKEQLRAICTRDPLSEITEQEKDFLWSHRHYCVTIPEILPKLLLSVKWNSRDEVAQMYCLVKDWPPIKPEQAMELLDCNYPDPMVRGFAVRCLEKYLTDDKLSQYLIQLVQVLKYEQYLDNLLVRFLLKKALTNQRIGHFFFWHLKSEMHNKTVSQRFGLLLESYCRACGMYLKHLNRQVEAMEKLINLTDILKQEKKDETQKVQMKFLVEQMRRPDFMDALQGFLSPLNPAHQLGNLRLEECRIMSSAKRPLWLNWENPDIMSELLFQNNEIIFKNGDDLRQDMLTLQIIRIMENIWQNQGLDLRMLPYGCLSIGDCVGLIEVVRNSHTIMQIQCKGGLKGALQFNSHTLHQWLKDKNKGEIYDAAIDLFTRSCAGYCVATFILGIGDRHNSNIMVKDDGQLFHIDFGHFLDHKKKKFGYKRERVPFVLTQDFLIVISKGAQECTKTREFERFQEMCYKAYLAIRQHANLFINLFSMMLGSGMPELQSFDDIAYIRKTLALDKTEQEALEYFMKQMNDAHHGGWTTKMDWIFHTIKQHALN
# T1 sequence (P23727 2-724 partner): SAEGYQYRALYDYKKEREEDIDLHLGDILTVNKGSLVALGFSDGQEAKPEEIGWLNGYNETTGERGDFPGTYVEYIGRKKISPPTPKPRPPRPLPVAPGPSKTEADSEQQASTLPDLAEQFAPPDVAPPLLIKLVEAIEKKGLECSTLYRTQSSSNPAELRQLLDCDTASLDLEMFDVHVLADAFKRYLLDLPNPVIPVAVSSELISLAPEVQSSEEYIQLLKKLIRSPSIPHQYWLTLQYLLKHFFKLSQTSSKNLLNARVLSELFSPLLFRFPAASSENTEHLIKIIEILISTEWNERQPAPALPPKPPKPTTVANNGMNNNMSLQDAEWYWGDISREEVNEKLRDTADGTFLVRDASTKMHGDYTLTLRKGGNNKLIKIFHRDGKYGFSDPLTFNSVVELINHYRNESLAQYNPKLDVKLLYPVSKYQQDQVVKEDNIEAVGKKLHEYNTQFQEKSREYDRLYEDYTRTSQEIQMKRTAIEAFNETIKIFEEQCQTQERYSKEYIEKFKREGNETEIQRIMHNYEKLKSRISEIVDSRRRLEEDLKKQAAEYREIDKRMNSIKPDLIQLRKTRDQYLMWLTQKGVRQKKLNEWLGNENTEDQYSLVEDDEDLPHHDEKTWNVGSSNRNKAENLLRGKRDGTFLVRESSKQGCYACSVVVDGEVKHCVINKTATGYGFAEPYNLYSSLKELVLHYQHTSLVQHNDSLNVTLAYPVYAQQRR
smiles,measurement,setting,value
C=CCN(/C=C1/C(=O)O[C@H](COC)[C@@]2(C)C1=C(O)C(=O)C1=C2[C@H](OC(C)=O)C[C@]2(C)C(=O)CC[C@@H]12)CC=C [PX-866],Combined Growth delay days,OvCaR-3 ovarian; [8],20 days
same,Combined TGI %,OvCaR-3 ovarian; [8],83%
same,Combined log cell kill,OvCaR-3 ovarian; [8],1.5
same,Combined Growth delay days,OvCaR-3 ovarian; [9],34 days
same,Combined TGI %,OvCaR-3 ovarian; [9],87%
same,Combined log cell kill,OvCaR-3 ovarian; [9],2.6
same,Alone Growth delay days,OvCaR-3 ovarian; PX-866 iv 12 mg/kg Q2D × 5,12 days
same,Alone TGI %,OvCaR-3 ovarian; PX-866 iv 12 mg/kg Q2D × 5,58%
same,Alone log cell kill,OvCaR-3 ovarian; PX-866 iv 12 mg/kg Q2D × 5,0.9
same,Alone Growth delay days,OvCaR-3 ovarian; PX-866 po 4 mg/kg Q2D × 5,11 days
same,Alone TGI %,OvCaR-3 ovarian; PX-866 po 4 mg/kg Q2D × 5,53%
same,Alone log cell kill,OvCaR-3 ovarian; PX-866 po 4 mg/kg Q2D × 5,0.82
same,Growth Delay,HT-29 colon,6 days
same,Log10 cell kill,HT-29 colon,0.4
same,T/C % (optimal test/control),HT-29 colon; day 16,39 (16) %
same,plasma glucose AUC0-180 min,"[1]; PX-866 3 mg/kg po QOD × 20, glucose 24 hours after the last dose",520 ± 14^a mg · min · ml^−1
same,plasma glucose AUC0-180 min,"[1]; PX-866 10 mg/kg po single dose, glucose 4 hours later, no other drug",533 ± 17^a mg · min · ml^−1
same,enhancement of the growth inhibition by gefitinib,A-549 cells,did not enhance
same,antitumor effect with gefitinib,HT-29 colon cancer,increased the antitumor effect of gefitinib
same,duration of increase in plasma insulin levels,[2],up to 5 hr
same,change in any other blood elements,[3],no significant change
same,neutrophil counts,"[3]; ±S.E., n=4",3.7±1.8 K/:l
same,Combined Growth delay days,A-549 lung; [10],10 days
same,Combined TGI %,A-549 lung; [10],58%
same,Combined log cell kill,A-549 lung; [10],1.0
same,Alone Growth delay days,A-549 lung; [11],3 days
same,Alone TGI %,A-549 lung; [11],27%
same,Alone log cell kill,A-549 lung; [11],0.30
same,inhibition at 12 mg/kg,"[4]; Mus musculus, A549, iv, 120 h, read-out: inhibition of tumor phospho-Akt",51%
same,inhibition at 3 mg/kg,"[4]; Mus musculus, A549, po, 120 h, read-out: inhibition of tumor phospho-Akt",48%
same,effect upon tumor phospho-Akt,[4]; [12],inhibited both
same,"erythroid lineage CFU-GEMM, BFU-E or CFU-E",mouse bone marrow,no significant change
same,myeloid CFU-GM,"mouse bone marrow; ±S.E., n=4","168±59 colonies per 60,000 bone marrow cells plated"
same,half-life,[5],~960 min
same,nonfasting glucose levels,[6],269.4 ± 27.8 mg/dL
same,IC50,p110α/p85α,5.5 nM
same,effect upon tumor phospho-EGFR,[7]; PX-866 3 mg/kg po every other day for 5 days,no significant effect
same,effect upon tumor phospho-EGFR,[7]; PX-866 12 mg/kg iv every other day for 5 days,no significant effect
same,effect upon tumor phospho-EGFR,[7]; [12],inhibited both
